Laboratory results from publication PMC5540490, “Plasma concentrations of caspofungin in a critically ill patient with morbid obesity” (Critical Care, 2017).
Like-named read-outs stand apart in the source and are kept apart here.

Tests used:
[1] = Clinical course and tolerability of caspofungin treatment in the patient; assay type: in vivo, human; conditions: 100 mg/day for 14 days; one patient
From the text: (§1) A morbidly obese person (BMI = 50 kg/m^2) was admitted to our ICU after surgical treatment of anastomotic leak in the postoperative period of elective laparoscopic bariatric surgery. The patient was in septic shock, with Candida multicolonization and other risk factors of invasive candidiasis. We decided to start antimicrobial treatment, including meropenem, linezolid and caspofungin. With the intention of maximizing the potential effectiveness of antifungal treatment, caspofungin at a dose of 100 mg/day was chosen. The caspofungin dose was calculated using a population pharmacokinetic model. Target AUC/MIC was set at 860 and therefore AUC values above 107 mg*h/L were necessary assuming MIC = 0.125 mg/L [2]. […] The manufacturer recommends caspofungin dose reduction when AUC values are above 210 mg*h/L and, accordingly, drug exposure was considered safe.

[2] = Plasma/serum concentrations of caspofungin in a critically ill patient with morbid obesity; assay type: in vivo; conditions: male, human, plasma, 100 mg/day; for Cmax: read-out: Cpeak
From the text: The aim of the study was to describe the pharmacokinetic behaviour of caspofungin in a critically ill patient with morbid obesity who received doses of caspofungin higher than labelled doses.
as §1

[3] = three days later, one morbidly obese ICU patient

CC[C@H](C)C[C@H](C)CCCCCCCCC(=O)N[C@H]1C[C@@H](O)[C@@H](NCCN)NC(=O)[C@@H]2[C@@H](O)CCN2C(=O)[C@H]([C@H](O)CCN)NC(=O)[C@H]([C@H](O)[C@@H](O)c2ccc(O)cc2)NC(=O)[C@@H]2C[C@@H](O)CN2C(=O)[C@H]([C@@H](C)O)NC1=O [caspofungin]
Adverse effects related to the drug [1]: without any adverse effects | AUC ([2]; after the first dose, one morbidly obese ICU patient): 116 µg·h/mL | Cmax ([2]; after the first dose, one morbidly obese ICU patient (BMI 50 kg/m^2) in septic shock): 4510 ng/mL | AUC [2, 3]: 140 µg·h/mL | Cmax [2, 3]: 5970 ng/mL | level at 72 h ([2]; three days later, one morbidly obese ICU patient, read-out: Ctrough): 1760 ng/mL
